According to ChEMBL document CHEMBL4422617, “Recent advances in the discovery of small molecules targeting glioblastoma” (Eur J Med Chem, 2019):
In brackets after ≈: the same amount, converted by molar mass.

Columns and labels:
SNB-19 = assay: Antiproliferative activity against human SNB19 cells after 72 hrs by WST-1 assay; type: functional, cell-based; conditions: SNB-19, 72 h
PBMC = assay: Cytotoxicity against human PBMC after 72 hrs by MTT assay; type: cell-based
SF-295 [1] = assay: Cytotoxicity against human SF295 cells after 72 hrs by MTT assay; type: functional, cell-based; conditions: SF-295, 72 h
[2] = Antiproliferative activity against human GBM95 cells after 72 hrs by MTT assay; type: functional, cell-based
U-87 MG [3] = assay: Antiproliferative activity against human U87MG cells after 72 hrs by MTT assay; type: functional, cell-based, U-87MG ATCC
U-87 MG [4] = assay: Antiproliferative activity against human U87 cells after 48 hrs by MTT assay; type: functional, U-87MG ATCC
[5] = Antiproliferative activity against human BT74 cells after 72 hrs by WST-1 assay; type: functional, cell-based
U-87 MG [6] = assay: Antiproliferative activity against human U87 cells after 72 hrs by WST-1 assay; type: functional, cell-based, U-87MG ATCC
A 172 = assay: Antiproliferative activity against human A172 cells after 72 hrs by WST-1 assay; type: functional, cell-based; conditions: A 172, 72 h
[7] = Antiproliferative activity against human MGG8 cells after 72 hrs by WST-1 assay; type: functional, cell-based
[8] = Antiproliferative activity against human MGG4 cells after 72 hrs by WST-1 assay; type: functional, cell-based
U-251 [9] = assay: Antiproliferative activity against human U251 cells after 72 hrs by WST-1 assay; type: functional, cell-based; conditions: U-251, 72 h
U-251 [10] = assay: Antiproliferative activity against human U251 cells after 24 hrs by MTT assay; type: functional, cell-based; conditions: U-251, 24 h
[11] = Antiproliferative activity against human D456 cells after 7 days […] by CellTiter Glo assay; type: functional, cell-based; conditions: 168 h
SF-268 = assay: Antiproliferative activity against human SF268 cells after 6 days by cell counting analysis; type: functional; conditions: SF-268, 144 h
U-251 [12] = assay: Antitumor activity against human U251 cells xenografted in CAnN. Cg-Foxn1nu/CrlCrlj nude mouse assessed as tumor growth inhibition at 240 mg/kg, ip dosed 5 times a week for 39 days relative to control; type: functional; conditions: U-251, ip, 936 h, read-out: TGI
SNB-78 = assay: Antiproliferative activity against human SNB78 cells after 6 days by cell counting analysis; type: functional; conditions: SNB-78, 144 h
SF-539 = assay: Antiproliferative activity against human SF539 cells after 6 days by cell counting analysis; type: functional; conditions: SF-539, 144 h
U-251 [13] = assay: Antitumor activity against human U251 cells xenografted in CAnN. Cg-Foxn1nu/CrlCrlj nude mouse assessed as inhibition of tumor weight at 240 mg/kg, ip dosed 5 times a week for 39 days relative to control; type: functional; conditions: U-251, ip, 936 h
SNB-75 = assay: Antiproliferative activity against human SNB75 cells after 6 days by cell counting analysis; type: functional; conditions: SNB-75, 144 h
SF-295 [14] = assay: Antiproliferative activity against human SF295 cells after 6 days by cell counting analysis; type: functional; conditions: SF-295, 144 h
U-251 [15] = assay: Antiproliferative activity against human U251 cells after 6 days by cell counting analysis; type: functional; conditions: U-251, 144 h
U-87 MG [16] = assay: Cytotoxicity against human U87 cells expressing EGFRvIII after 72 hrs by AlamarBlue assay; type: functional, cell-based, U-87MG ATCC
U-251 [17] = assay: Cytotoxicity against human U251 cells after 72 hrs by AlamarBlue assay; type: functional, cell-based; conditions: U-251, 72 h
GBM = assay: Cytotoxicity against GBM cells derived from human patient after 72 hrs by AlamarBlue assay; type: functional, cell-based
U-87 MG [18] = assay: Cytotoxicity against human U87 cells after 72 hrs by AlamarBlue assay; type: functional, cell-based, U-87MG ATCC
U-87 MG [19] = assay: Antiproliferative activity against human U87MG cells after 72 hrs by coulter counting analysis; type: functional, cell-based, U-87MG ATCC
U-251 [20] = assay: Antiproliferative activity against human U251 cells after 72 hrs by coulter counting analysis; type: functional, cell-based; conditions: U-251, 72 h
[21] = Antiproliferative activity against human DBTRG cells after 72 hrs by coulter counting analysis; type: functional, cell-based
[22] = Cytotoxicity against patient derived GSC after 96 hrs by CellTiter-Glo assay; type: functional, Homo sapiens
U-251 [23] = assay: Antiproliferative activity against human U251 cells by MTT assay; type: functional, cell-based
U-87 MG [24] = assay: Antiproliferative activity against human U87 cells after 5 days by AlamarBlue assay; type: functional, cell-based, U-87MG ATCC; conditions: 120 h
LN-229 = assay: Antiproliferative activity against human LN229 cells after 5 days by AlamarBlue assay; type: functional, cell-based; conditions: LN-229, 120 h
T98G = assay: Antiproliferative activity against human T98G cells after 5 days by AlamarBlue assay; type: functional, cell-based; conditions: 120 h
U138-MG = assay: Antiproliferative activity against human U138MG cells after 5 days by AlamarBlue assay; type: functional, cell-based; conditions: 120 h
[25] = Antiproliferative activity against human U373 cells after 5 days by AlamarBlue assay; type: functional, cell-based, U-373MG ATCC; conditions: U373 MG, 120 h
U-87 MG [26] = assay: Antitumor activity against human U87MG cells xenografted in nude-Fox1nu mouse assessed as tumor growth inhibition at 150 mg/kg bid relative to control; type: functional, U-87MG ATCC; conditions: read-out: TGI
U-87 MG [27] = assay: Antiproliferative activity against human U87MG cells after 96 hrs; type: functional, U-87MG ATCC
[28] = Antiproliferative activity against human U3005MG cells by CellTiter-Glo assay; type: functional, cell-based
[29] = Antiproliferative activity against human U3046MG cells by CellTiter-Glo assay; type: functional, cell-based

With C#CCSc1nc(Cl)nc2nc(SCC#C)n(C)c12 the IC50 (SNB-19) was 0.07 µg/mL (≈ 0.227 µM).

Work on O=C(O)CNC1=CC(=O)c2ccccc2C1=O yielded an IC50 (PBMC) of 23.8 µM and an IC50 (SF-295 [1]) of 2.4 µM.

Work on CC(C)=CCC1=C(NCCCCN(CN)CCCc2ccccc2)C(=O)c2ccccc2C1=O yielded an IC50 [2] of 6.6 µM and an IC50 (U-87 MG [3]) of 4.3 µM.

In the case of O=C1C=C(N[C@@H](Cc2ccccc2)C(=O)O)C(=O)c2ccccc21, the IC50 (PBMC) is reported as 37.9 µM and the IC50 (SF-295 [1]) is reported as 2 µM.

Compound Cn1cnc2nc(Cl)nc(SCC#CCN3CCCC3)c21 has an EC50 (SNB-19) of 5 µg/mL (≈ 15.5 µM).

For Cc1nc(=O)c2c(-c3ccccc3)c(C(=O)c3ccccc3)[nH]c2[nH]1, the GI50 (U-87 MG [4]) was 0.077 µM.

For CCn1c(C)c(C(=O)c2ccc(C)c3ccccc23)c2ccccc21, the EC50 [5] was 2400 to 8600 µM, the EC50 (U-87 MG [6]) was 2400 to 8600 µM and the EC50 (A 172) was 2400 to 8600 µM. It also gave an EC50 [7] of 2400 to 8600 µM, an EC50 [8] of 2400 to 8600 µM and an EC50 (U-251 [9]) of 2400 to 8600 µM.

In the case of Cc1ccc(-c2nnc(SCC(=O)N3N=C(c4cccs4)CC3c3ccc(Cl)cc3)o2)cc1 (centres undefined), the IC50 (U-251 [10]) is reported as 11.9 µM.

Compound O=C1CC(c2ccc(-c3cc[nH]n3)s2)c2cc(N3CCNC3=O)ccc2N1 (centres undefined) has an IC50 [11] of 1.69 µM.

Compound Cc1oc2nc1-c1nc(co1)C(=O)N[C@@H](Cc1ccc(O)cc1)c1nc(c(C)o1)-c1nc(c(C)o1)-c1nc(co1)C(=O)N[C@@H](Cc1ccc(O)cc1)c1nc-2c(C)o1 has a GI50 (SF-268) of 0.021 to 0.18 µM, an inhibition in vivo at 240 mg/kg (U-251 [12]) of 33% and a GI50 (SNB-78) of 0.021 to 0.18 µM. For the same compound, the GI50 (SF-539) was 0.021 to 0.18 µM, the inhibition in vivo at 240 mg/kg (U-251 [13]) was 61% and the GI50 (SNB-75) was 0.021 to 0.18 µM. The GI50 (SF-295 [14]) was 0.021 to 0.18 µM and the GI50 (U-251 [15]) was 0.021 to 0.18 µM.

O=C(CCCc1ccc(-c2cc3ccccc3cn2)cc1)Nc1ccc(O)cc1 gave an EC50 (U-87 MG [16]) of 0.6 to 1.3 µM, an EC50 (U-251 [17]) of 0.6 to 1.3 µM and an EC50 (GBM) of 0.54 µM. It also gave an EC50 (U-87 MG [18]) of 0.6 to 1.3 µM.

Compound Nc1c(-c2cccnc2)ncc2c1C(=O)c1c(-c3ccccn3)nn(-c3ccc(F)cc3F)c1C2=O has an IC50 (U-87 MG [19]) of 2.5 µM, an IC50 (U-251 [20]) of 2.5 µM and an IC50 [21] of 2.5 µM.

With CCN(CC)C(=S)SSC(=S)N(CC)CC the IC50 [22] was 0.0311 µM.

O[C@@H](c1cc(C(F)(F)F)nc2c(C(F)(F)F)cccc12)[C@H]1CCCCN1 [(S,R)-MEFLOQUINE] gave an IC50 (U-251 [23]) of 10 µM.

For O=C(Nc1ccc([N+](=O)[O-])cc1Cl)c1cc(Cl)ccc1O [NICLOSAMIDE], the IC50 (U-87 MG [24]) was 0.3 to 1.2 µM, the IC50 (LN-229) was 0.3 to 1.2 µM and the IC50 (T98G) was 0.3 to 1.2 µM. It also gave an IC50 (U138-MG) of 0.3 to 1.2 µM and an IC50 [25] of 0.3 to 1.2 µM.

CS(=O)(=O)N1CCN(Cc2cc3nc(-c4cccc5[nH]ncc45)nc(N4CCOCC4)c3s2)CC1 [PICTILISIB] gave an inhibition in vivo at 150 mg/kg (U-87 MG [26]) of 98% and a GI50 (U-87 MG [27]) of 0.07 µM.

In the case of CCN(CC)CCCC(C)Nc1c2ccc(Cl)cc2nc2ccc(OC)cc12 (centres undefined) [QUINACRINE], the IC50 (U-251 [23]) is reported as 5 µM.

In the case of CN1CCN(CCCN2c3ccccc3Sc3ccc(C(F)(F)F)cc32)CC1 [TRIFLUOPERAZINE], the EC50 [28] is reported as 1.85 µM and the EC50 [29] is reported as 1.34 µM.
